Laboratory results as given in US20240270762A1, “PENICILLIN-BINDING PROTEIN INHIBITORS” (priority 2021, published 2024).
In brackets after ≈: the same amount, converted by molar mass.

What was measured:
[1] = molecular target: T1, PBP3 from Escherichia coli (K-12) (Escherichia coli, UniProt P0AD68); assay: Bocillin-FL fluorescence polarization competition binding, E. coli PBP3
T1 construct: made in house
Method in brief: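 Purified PBP was preincubated with inhibitor (E. coli PBP3 1.5 μM, 30 min; P. aeruginosa PBP3 0.75 μM, A. baumannii PBP3 0.2 μM and PBP1a 1 μM, 15 min), then Bocillin-FL (0.1 μM; 0.05 μM for PBP1a) added and FP read up to 60 min. EC50 = 50% loss of bound probe.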

[2] = system: P. aeruginosa (ΔmexAB-oprM); assay: Broth microdilution MIC in iron-depleted CAMHB (IDM); assay type: cell-based; conditions: Pseudomonas aeruginosa; iron-depleted CAMHB (IDM); […]; read-out: Minimum inhibitory concentration, P. aeruginosa ΔmexAB-oprM
[3] = system: P. aeruginosa CDC-0054; assay: microbe, parasite or virus in culture; assay type: cell-based; conditions: Pseudomonas aeruginosa, CDC0054, read-out: Minimum inhibitory concentration, P. aeruginosa CDC-0054
[4] = system: P. aeruginosa CDC-0090; assay: microbe, parasite or virus in culture; assay type: cell-based; conditions: Pseudomonas aeruginosa, CDC0090, read-out: Minimum inhibitory concentration, P. aeruginosa CDC-0090
[5] = system: A. baumannii CDC-0045; assay: microbe, parasite or virus in culture; assay type: cell-based; conditions: Acinetobacter baumannii, CDC0045, read-out: MIC, A. baumannii CDC-0045
[6] = system: B. thailandensis ATCC 700388; assay: microbe, parasite or virus in culture; assay type: cell-based; conditions: Burkholderia thailandensis, ATCC700388, read-out: Minimum inhibitory concentration (MIC), B. thailandensis ATCC 700388
[7] = system: B. humptydooensis ATCC BAA-2767; assay: microbe, parasite or virus in culture; assay type: cell-based; conditions: Burkholderia humptydooensis, ATCCBAA2767, read-out: Minimum inhibitory concentration (MIC), B. humptydooensis ATCC BAA-2767
[8] = system: N. gonorrhoeae WHO L; assay: Liquid broth MIC in Fastidious broth; conditions: Neisseria gonorrhoeae, read-out: Minimum Inhibitory Concentration, WHO L
Protocol: Liquid broth-based assays were used for antibacterial testing of PBP inhibitors in Neisseria gonorrhoeae. Briefly, cryo-preserved bacterial cultures of clinical strains were streaked for isolation on Chocolate Agar (72 g/L (2×) GC Agar Base (BD #228950) and 2% (2×) Hemoglobin was autoclaved at 121° C. for 20 minutes to sterilize. Once cooled to ˜50° C. the 2×GC Agar Base and 2× Hemoglobin solutions are combined and 1% IsoVitaleX Enrichment (BD #211876) was added to the solution). Strains were incubated at 36° C. and 5% CO2 to allow growth of colonies, 24 hours before inoculum preparation. 2-fold serial dilutions of test compounds were conducted in a 96 well plate with a final volume of 75 μL per well at 2-fold the final desired concentration in Fastidious broth (Remel #R07664). For preparation of assay inoculum, a direct suspension was prepared by aseptically swabbing 10-15 colonies from agar plates into culture tubes containing 2 mL of fresh sterile saline. After the dilution plates were set up, direct suspensions were then diluted in a cuvette containing sterile saline and the optical density was measured at 600 nm. Inocula were diluted such that 75 μL of this culture in Fastidious broth results in a starting bacterial concentration of 5×10^5 CFU/mL when added to the dilution plates. The plates were incubated for ˜24 hours at 36° C. and 5% CO2.

[9] = system: N. gonorrhoeae WHO K; assay: Liquid broth MIC in Fastidious broth; conditions: Neisseria gonorrhoeae, read-out: Minimum Inhibitory Concentration, WHO K
[10] = system: N. gonorrhoeae WHO Q; assay: Liquid broth MIC in Fastidious broth; conditions: Neisseria gonorrhoeae, read-out: Minimum Inhibitory Concentration, WHO Q

T1 sequence (P0AD68 1-577): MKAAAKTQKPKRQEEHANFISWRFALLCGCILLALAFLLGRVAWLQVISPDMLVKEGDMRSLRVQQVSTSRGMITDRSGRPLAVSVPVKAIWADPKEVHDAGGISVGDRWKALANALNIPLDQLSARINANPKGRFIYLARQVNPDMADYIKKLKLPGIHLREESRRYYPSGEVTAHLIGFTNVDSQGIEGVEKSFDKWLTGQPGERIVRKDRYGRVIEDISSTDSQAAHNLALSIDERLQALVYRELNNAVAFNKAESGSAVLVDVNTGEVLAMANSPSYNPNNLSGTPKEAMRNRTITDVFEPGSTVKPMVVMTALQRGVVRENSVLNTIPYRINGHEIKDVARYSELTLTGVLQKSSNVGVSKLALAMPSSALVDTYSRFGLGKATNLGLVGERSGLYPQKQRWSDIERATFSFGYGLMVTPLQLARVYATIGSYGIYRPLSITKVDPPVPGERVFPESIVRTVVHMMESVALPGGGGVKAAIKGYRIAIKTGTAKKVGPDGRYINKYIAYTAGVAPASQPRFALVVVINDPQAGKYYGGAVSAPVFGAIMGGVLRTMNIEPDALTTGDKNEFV

| SMILES | EC50 [1] | MIC [2] | MIC [3] | MIC [4] | MIC [5] | MIC [6] | MIC [7] | MIC [8] | MIC [9] | MIC [10] |
| --- | --- | --- | --- | --- | --- | --- | --- | --- | --- | --- |
| O=C(NCCCS(=O)(=O)N1CCN(C(=O)NC(C(=O)N[C@H]2Cc3ccc(F)c(C(=O)O)c3OB2O)c2cc(F)c(O)c(O)c2Cl)C1=O)c1nccs1 (stereo partly drawn) [Example 274, (3R)-3-(2-(2-chloro-5-fluoro-3,4-dihydroxyphenyl)-2-(2-oxo-3-((3-(thiazole-2-carboxamido)propyl)sulfonyl)imidazolidine-1-carboxamido)acetamido)-7-fluoro-2-hydroxy-3,4-dihydro-2H-benzo[e][1,2]oxaborinine-8-carboxylic acid] | < 10 µM | < 1 µg/mL | 2 to 4 µg/mL (≈ 2.54 to 5.08 µM) | 2 to 4 µg/mL (≈ 2.54 to 5.08 µM) | < 1 µg/mL | > 128 µg/mL | 2 to 4 µg/mL (≈ 2.54 to 5.08 µM) | > 64 µg/mL | > 64 µg/mL | 16 to 32 µg/mL (≈ 20.3 to 40.7 µM) |
| O=C(O)c1c(F)ccc2c1OB(O)[C@@H](NC(=O)C(NC(=O)N1CCN(S(=O)(=O)CCCNC(=O)[C@@H]3CCCN3)C1=O)c1cc(F)c(O)c(O)c1Cl)C2 (stereo partly drawn) [Example 275, (3R)-3-(2-(2-chloro-5-fluoro-3,4-dihydroxyphenyl)-2-(2-oxo-3-((3-((S)-pyrrolidine-2-carboxamido)propyl)sulfonyl)imidazolidine-1-carboxamido)acetamido)-7-fluoro-2-hydroxy-3,4-dihydro-2H-benzo[e][1,2]oxaborinine-8-carboxylic acid] | 10 to 50 µM | < 1 µg/mL | 8 to 16 µg/mL (≈ 10.4 to 20.7 µM) | 8 to 16 µg/mL (≈ 10.4 to 20.7 µM) | < 1 µg/mL | < 1 µg/mL | < 1 µg/mL | > 64 µg/mL | > 64 µg/mL | 16 to 32 µg/mL (≈ 20.7 to 41.4 µM) |
| O=C(NCCCS(=O)(=O)N1CCN(C(=O)NC(C(=O)N[C@H]2Cc3ccc(F)c(C(=O)O)c3OB2O)c2cc(F)c(O)c(O)c2Cl)C1=O)Nc1ccc(O)cc1 (stereo partly drawn) [Example 276, (3R)-3-(2-(2-chloro-5-fluoro-3,4-dihydroxyphenyl)-2-(3-((3-(3-(4-hydroxyphenyl)ureido)propyl)sulfonyl)-2-oxoimidazolidine-1-carboxamido)acetamido)-7-fluoro-2-hydroxy-3,4-dihydro-2H-benzo[e][1,2]oxaborinine-8-carboxylic acid] | < 10 µM | < 1 µg/mL | 8 to 16 µg/mL (≈ 9.87 to 19.7 µM) | < 1 µg/mL | 2 to 4 µg/mL (≈ 2.47 to 4.93 µM) | > 128 µg/mL | 32 to 64 µg/mL (≈ 39.5 to 78.9 µM) | > 64 µg/mL | > 64 µg/mL | 16 to 32 µg/mL (≈ 19.7 to 39.5 µM) |
